The target in the test is hTRPA1 (Homo sapiens, UniProt O75762). Description: Dose response calcium flux (FLIPR) assay, ChanTest hTRPA1-CHO stably transfected cell line, cinnamaldehyde agonist. The test is classed as cell-based. As to conditions: CHO-K1 Tet-On hTRPA1 cells, 100 uM cinnamaldehyde agonist, 30 min preincubation. The procedure: Dose Response Assay:ChanTest hTRPA1-CHO Stably Transfected Cell Line
CHO-K1 Tet-On_HOMSA_TRPA1_Clone_20
Growth Media for CHO-K1 Tet-On_HOMSA_TRPA1_Clone_20 • Ham's F-12 with 10% tetracycline-free FBS • 1× penicillin-streptomycin • 1× glutamax • 0.01 mg/ml Blasticidin • 0.40 mg/ml Zeocin • The cell line doubling rate was ˜15 h. […] Experiments were run at 24 h post induction.
Plating Conditions CHOK1/TRPA1 Cells: • Harvested cells with 0.025% trypsin/EDTA. • Resuspended cells in growth media without selection antibiotics. • Measured cell density and diluted to 2.4×10^5 cells/ml in media containing 1 ug/ml Doxycycline Plate 25 ul/well into 384 well black/clear tissue culture-treated plates. • Incubated overnight at 37° C.
Replacement Buffer: Hank's Balanced Salt Solution, 20 mM HEPES along with 0.005% BSA and 2× Probenecid
Dye Loading Buffer: Cal-3 NW Calcium dye was prepared by dissolving the contents of one vial with […] Hank's Balanced Salt Solution containing 20 mM HEPES.
AP-18, stock 10 mM, prepare 3.5× compound dilution in a Compound Buffer (HBSS/20 mM HEPES/0.005% BSA)—final concentration 10 uM.
Preparation of Cinnamaldehyde (Agonist Addition): • FW=132.16 • Specific gravity=1.046 gm/cc • 1.32 gm/1.046 gm/cc=1.26 ml of stock • Add 1.74 ml DMSO=3.3 M stock • Working solution 4.5× (final 100 uM in Compound Buffer: HBSS/20 mM HEPES/0.005% BSA)
Compounds dilutions were prepared from 5 or 10 mM stock (100% DMSO): • Adjustments of volumes and concentrations were made at time of titration to reflect desired final assay concentrations. • Compounds were tested at either 20 μM three folds dilution 11 steps out or 30 μM two folds dilution 11 steps out. • 3 μl of diluted compound were transferred into Weidmann 384-well plate in duplicates side-by-side. • Compound plates were resuspended with 100 ul of HBSS/20 mM HEPES/0.005% BSA buffer (Compound Buffer): • column 1A-H: buffer/DMSO (bk) • column 2A-H: AP-18 (control antagonist for CHOK1 TRPA1 cells) • column 1I-P: ATP (control for CHOK1 teton cells) • column 2I-P: 2APB (control antagonist for CHOK1/TRPM8 cells).
Growth media was removed from the cell plates (20 ul) and 20 μl of the Replacement Buffer was added followed by addition of 25 μl of diluted dye. All three steps were performed using a Plate Washer BioTek 407. The plates were then incubated for 30′ at RT.
After incubation, both the cell and compound plates were brought to the FLIPR and 20 μl of the diluted compounds/antagonist/bk were transferred to the cell plates by the FLIPR. Plates were then incubated for 30′ at room temperature. After 30′ incubation, plates were returned to the FLIPR and 20 μl of 4.5× Cinnamaldehyde was added to the cell plates. During the compound addition as well as agonist addition, fluorescence readings were taken simultaneously from all 384 wells of the cell plate every 1.5 seconds. Five readings were taken to establish a stable baseline, then 20 μl of sample was rapidly (30 ul/sec) and simultaneously added to each well of the cell plate. The fluorescence was continuously monitored before, during and after sample/agonist addition for a total elapsed time of 100 seconds (compound addition) and 120 seconds (agonist addition). Responses (increase in peak fluorescence) in each well following agonist addition was determined. The initial fluorescence reading from each well, prior to ligand stimulation, was used a zero baseline value for the data from that well.

For 24 compounds, IC50 results are on record in patent US9353096B2, “Substituted phenylcarbamate compounds” (Hoffmann-La Roche Inc., priority 2012, dated 2016).

Counter-ions that a name gives are not always drawn.

Chain of hTRPA1 (O75762 whole entry): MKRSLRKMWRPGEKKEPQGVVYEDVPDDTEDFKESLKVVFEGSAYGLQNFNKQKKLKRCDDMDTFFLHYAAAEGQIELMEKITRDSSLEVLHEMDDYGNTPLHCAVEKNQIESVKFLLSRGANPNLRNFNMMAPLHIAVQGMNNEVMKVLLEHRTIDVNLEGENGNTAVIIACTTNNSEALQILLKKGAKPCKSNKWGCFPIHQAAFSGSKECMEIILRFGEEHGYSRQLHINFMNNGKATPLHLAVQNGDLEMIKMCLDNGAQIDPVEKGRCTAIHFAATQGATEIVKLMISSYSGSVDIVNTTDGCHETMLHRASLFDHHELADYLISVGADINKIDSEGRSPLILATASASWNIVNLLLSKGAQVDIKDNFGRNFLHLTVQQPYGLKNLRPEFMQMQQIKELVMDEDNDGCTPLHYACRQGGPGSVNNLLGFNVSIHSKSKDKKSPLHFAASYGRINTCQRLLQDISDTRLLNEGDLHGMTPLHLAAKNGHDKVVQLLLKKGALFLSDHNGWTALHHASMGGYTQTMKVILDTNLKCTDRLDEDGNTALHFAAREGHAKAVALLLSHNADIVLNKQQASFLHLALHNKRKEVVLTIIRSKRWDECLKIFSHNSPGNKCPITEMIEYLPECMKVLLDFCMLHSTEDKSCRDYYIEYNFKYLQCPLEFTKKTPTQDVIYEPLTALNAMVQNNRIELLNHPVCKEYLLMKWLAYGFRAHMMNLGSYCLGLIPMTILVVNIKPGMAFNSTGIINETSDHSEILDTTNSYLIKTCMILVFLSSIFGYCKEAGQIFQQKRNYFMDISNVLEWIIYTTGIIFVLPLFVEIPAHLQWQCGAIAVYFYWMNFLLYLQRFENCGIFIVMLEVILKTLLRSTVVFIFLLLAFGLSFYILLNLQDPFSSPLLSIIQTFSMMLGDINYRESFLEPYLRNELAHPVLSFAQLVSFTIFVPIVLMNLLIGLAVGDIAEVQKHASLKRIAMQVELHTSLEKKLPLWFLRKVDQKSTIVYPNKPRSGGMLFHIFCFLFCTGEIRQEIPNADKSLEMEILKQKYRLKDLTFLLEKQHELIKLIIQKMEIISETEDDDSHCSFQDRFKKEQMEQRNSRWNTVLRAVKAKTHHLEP

Take `O=C(Nc1ccc(Cl)cc1)O[C@@H](CN1CCO[C@@H](Cc2ccccc2)C1)C(F)(F)F` (single isomer, unassigned) [Example 10, hydrochloride]: the IC50 came to 3580 nM.

On to `COc1cccc([C@H]2CN(C[C@H](OC(=O)Nc3ccc(Cl)cc3)C(F)(F)F)CCO2)c1` (single isomer, unassigned) [Example 15], for which the IC50 was 803 nM.

As for `O=C(Nc1ccc(Cl)cc1)O[C@@H](CN1CCS(=O)(=O)[C@@H](c2cccc(C(F)(F)F)c2)C1)C(F)(F)F` (single isomer, unassigned) [Example 19], the IC50 was found to be 191 nM.

With `O=C(Nc1ccc(Cl)c(F)c1)O[C@@H](CN1CCS(=O)(=O)[C@@H](c2cccc(C(F)(F)F)c2)C1)C(F)(F)F` (single isomer, unassigned) [Example 21], the IC50 came out at 1100 nM.

For `O=C(Nc1ccc(Cl)c(F)c1)O[C@@H](CN1CCO[C@@H](c2ccc(C(F)(F)F)nc2)C1)C(F)(F)F` (single isomer, unassigned) [Example 23, hydrochloride], the IC50 amounted to 781 nM.

For the compound `CC(C)c1nccc([C@H]2CN(C[C@H](OC(=O)Nc3ccc(Cl)c(F)c3)C(F)(F)F)CCO2)n1` (single isomer, unassigned) [Example 26, hydrochloride], the IC50 came out at 846 nM.

For the compound `O=C(Nc1ccc(Cl)cc1)O[C@@H](CN1CCO[C@@H](c2ccc(C(F)(F)F)cc2)C1)C(F)(F)F` (single isomer, unassigned) [Example 30, hydrochloride], the IC50 came to 198 nM.

Take `O=C(Nc1ccc(Cl)c(F)c1)O[C@@H](CN1CCO[C@@H](c2ccc(F)c(F)c2)C1)C(F)(F)F` (single isomer, unassigned) [Example 35, hydrochloride]: the IC50 was 196 nM.

On to `O=C(Nc1ccc(Cl)cc1)O[C@@H](CN1CCO[C@H](c2ccc(F)c(C(F)(F)F)c2)C1)C(F)(F)F` [Example 1, (4-Chlorophenyl)-carbamic acid (S)-2,2,2-trifluoro-1-[(R)-2-(4-fluoro-3-trifluoromethylphenyl)-morpholin-4-ylmethyl]-ethyl ester hydrochloride], for which the IC50 turned out to be 4.91 nM.

With `O=C(Nc1ccc(Cl)cc1)O[C@@H](CN1CCOC(c2ccc(F)c(C(F)(F)F)c2)C1)C(F)(F)F` (stereo partly drawn) [Example 2, (4-Chlorophenyl)-carbamic acid (S)-2,2,2-trifluoro-1-[2-(4-fluoro-3-trifluoromethylphenyl)-morpholin-4-ylmethyl]-ethyl ester hydrochloride], the half-maximal inhibitory concentration (IC50) was determined as 8.5 nM.

As to `O=C(Nc1ccc(Cl)c(F)c1)O[C@@H](CN1CCO[C@H](c2ccc(F)c(C(F)(F)F)c2)C1)C(F)(F)F` [Example 3, (4-Chloro-3-fluorophenyl)-carbamic acid (S)-2,2,2-trifluoro-1-[(R)-2-(4-fluoro-3-trifluoromethylphenyl)-morpholin-4-ylmethyl]-ethyl ester hydrochloride], the IC50 is 14.3 nM.

Take `O=C(Nc1ccc(Cl)c(F)c1)O[C@@H](CN1CCO[C@H](c2ccc(Cl)c(F)c2)C1)C(F)(F)F` [Example 4, (4-Chloro-3-fluorophenyl)-carbamic acid (S)-1-[(R)-2-(4-chloro-3-fluorophenyl)-morpholin-4-ylmethyl]-2,2,2-trifluoroethyl ester hydrochloride]: the IC50 worked out at 42.4 nM.

As to `O=C(Nc1ccc(Cl)c(F)c1)O[C@@H](CN1CCO[C@H](c2ccc(F)c(Cl)c2)C1)C(F)(F)F` [Example 5, (4-Chloro-3-fluorophenyl)-carbamic acid (S)-1-[(R)-2-(3-chloro-4-fluorophenyl)-morpholin-4-ylmethyl]-2,2,2-trifluoroethyl ester hydrochloride], the IC50 is 30.7 nM.

For the compound `O=C(Nc1ccc(Cl)c(F)c1)O[C@@H](CN1CCO[C@H](c2cccc(Cl)c2)C1)C(F)(F)F` [Example 6, (4-Chloro-3-fluorophenyl)-carbamic acid (S)-1-[(R)-2-(3-chlorophenyl)-morpholin-4-ylmethyl]-2,2,2-trifluoroethyl ester hydrochloride], the IC50 was found to be 50.5 nM.

On to `O=C(Nc1ccc(Cl)c(F)c1)O[C@@H](CN1CCO[C@H](c2cccc(Cl)c2)C1)C(F)(F)F` [Example 7, (4-Chloro-3-fluorophenyl)-carbamic acid (S)-1-[(R)-2-(3-chlorophenyl)-morpholin-4-ylmethyl]-2,2,2-trifluoroethyl ester hydrochloride], for which the IC50 amounted to 47 nM.

In the case of `O=C(Nc1ccc(Cl)c(F)c1)O[C@@H](CN1CCO[C@@H](c2cccc(Cl)c2)C1)C(F)(F)F` [Example 8, (4-Chloro-3-fluorophenyl)-carbamic acid (S)-1-[(S)-2-(3-chlorophenyl)-morpholin-4-ylmethyl]-2,2,2-trifluoroethyl ester hydrochloride], the IC50 amounted to 597 nM.

As for `O=C(Nc1ccc(Cl)cc1)O[C@@H](CN1CCO[C@H](Cc2ccccc2)C1)C(F)(F)F` [Example 9, (4-Chlorophenyl)-carbamic acid (S)-1-((R)-2-benzyl-morpholin-4-ylmethyl)-2,2,2-trifluoroethyl ester hydrochloride], the IC50 is 121 nM.

`O=C(Nc1ccc(Cl)cc1)O[C@@H](CN1CCO[C@H](c2cccc(C(F)(F)F)c2)C1)C(F)(F)F` [Example 11, (4-Chlorophenyl)-carbamic acid (S)-2,2,2-trifluoro-1-[(R)-2-(3-trifluoromethylphenyl)-morpholin-4-ylmethyl]-ethyl ester hydrochloride]: the IC50 worked out at 5.58 nM.

Regarding `O=C(Nc1ccc(Cl)cc1)O[C@@H](CN1CCO[C@@H](c2cccc(C(F)(F)F)c2)C1)C(F)(F)F` [Example 12, (4-Chlorophenyl)-carbamic acid (S)-2,2,2-trifluoro-1-[(S)-2-(3-trifluoromethylphenyl)-morpholin-4-ylmethyl]-ethyl ester hydrochloride], the IC50 was 108 nM.

As for `O=C(Nc1ccc(Cl)c(F)c1)O[C@@H](CN1CCO[C@H](c2cccc(C(F)(F)F)c2)C1)C(F)(F)F` [Example 13, (4-Chloro-3-fluorophenyl)-carbamic acid (S)-2,2,2-trifluoro-1-[(R)-2-(3-trifluoromethylphenyl)-morpholin-4-ylmethyl]-ethyl ester hydrochloride], the IC50 is 6.35 nM.

For the compound `COc1cccc([C@@H]2CN(C[C@H](OC(=O)Nc3ccc(Cl)cc3)C(F)(F)F)CCO2)c1` [Example 14, (4-Chlorophenyl)-carbamic acid (S)-2,2,2-trifluoro-1-[(R)-2-(3-methoxyphenyl)-morpholin-4-ylmethyl]-ethyl ester], the IC50 turned out to be 36.1 nM.

Regarding `COc1cccc([C@@H]2CN(C[C@H](OC(=O)Nc3ccc(Cl)cc3)C(F)(F)F)CCS2(=O)=O)c1` [Example 16, (4-Chlorophenyl)-carbamic acid (S)-2,2,2-trifluoro-1-[(R)-2-(3-methoxyphenyl)-1,1-dioxo-1λ^6-thiomorpholin-4-ylmethyl]ethyl ester], the IC50 was 152 nM.

For the compound `COc1cccc(C2CN(C[C@H](OC(=O)Nc3ccc(Cl)cc3)C(F)(F)F)CCS2(=O)=O)c1` (stereo partly drawn) [Example 17, (4-Chlorophenyl)-carbamic acid (S)-2,2,2-trifluoro-1-[2-(3-methoxyphenyl)-1,1-dioxo-1λ^6-thiomorpholin-4-ylmethyl]-ethyl ester], the IC50 worked out at 390 nM.

Regarding `O=C(Nc1ccc(Cl)cc1)O[C@@H](CN1CCS(=O)(=O)[C@H](c2cccc(C(F)(F)F)c2)C1)C(F)(F)F` [Example 18, (4-Chlorophenyl)-carbamic acid (S)-1-[(R)-1,1-dioxo-2-(3-trifluoromethylphenyl)-1λ^6-thiomorpholin-4-ylmethyl]-2,2,2-trifluoroethyl ester], the IC50 came out at 42.5 nM.

Broadly, the IC50 is the midpoint of a concentration-inhibition curve.
